The term IC50 denotes the concentration at which inhibition is half-maximal.

The source of these data is US20070037846A1, “Pyrazolidinedione derivatives” (ACTELION PHARMACEUTICALS, LTD., priority 2003, published 2007).

In the assay the target is T1, human P2Y12 receptor (Homo sapiens, UniProt Q9H244).
T1 construct: expressed in transfected cells; host or cells: CHO (Chinese Hamster Ovary) cells
T1 sequence (Q9H244 whole entry): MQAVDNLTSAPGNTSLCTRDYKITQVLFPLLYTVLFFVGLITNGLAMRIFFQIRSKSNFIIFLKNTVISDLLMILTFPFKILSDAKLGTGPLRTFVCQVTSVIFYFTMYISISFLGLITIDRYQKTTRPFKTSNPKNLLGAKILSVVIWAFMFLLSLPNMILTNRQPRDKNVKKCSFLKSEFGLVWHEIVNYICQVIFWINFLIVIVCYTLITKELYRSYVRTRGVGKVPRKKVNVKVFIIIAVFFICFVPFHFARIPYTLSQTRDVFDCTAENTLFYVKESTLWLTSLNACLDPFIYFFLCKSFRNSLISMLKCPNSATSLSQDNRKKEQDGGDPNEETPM
Description: P2Y12 receptor binding assay (displacement of tritium-labeled 2-methyl-S-ADP on CHO cells). To be noted: CHO cells with recombinant human P2Y12 receptor, 2 hours at room temperature. As to the method: The ability of the compounds of formulae (I) and (III) to bind to the P2Y12 receptor may be measured by methods similar to those described in Gachet C. et al., Br. J. Hematol. 1995, 91, 434-444 and by the method described below in Example 16.
Chinese Hamster Ovary (CHO) cells with recombinant expression of the human P2Y12 receptor were cultured in 24 well cell-culture plates. Cells were washed three times with binding buffer (50 mM Tris pH 7.4, 100 mM NaCl, 1 mM EDTA, 0.5% BSA). The cells were then incubated with 0.5 ml per well binding buffer containing tritium-labeled 2-methyl-thio-adenosine 5′-diphosphate (2-methyl-S-ADP) (between 100'000 and 300'000 dpm per well) and various concentrations of test compounds. After incubation at room temperature for 2 hours, cells were washed three times with binding buffer. Then, cells were solubilized by addition of 0.5 ml solubilization buffer (SDS, NaOH, EDTA). The content of each well was then transferred into beta-counter vials and 2.0 ml of Ultima Gold Scintillation liquid was added.
The test is conducted as described hereinabove. […] Exemplary IC50 values are given below.
Take `CCCOc1ccc(C=C2C(=O)NN(c3ccccc3)C2=O)c(C)c1C` [Example 1, 4-(2,3-Dimethyl-4-propoxy-benzylidene)-1-phenyl-pyrazolidine-3,5-dione]: the IC50 is 24 nM. As for `COc1ccc(C=C2C(=O)NN(c3ccccc3)C2=O)c(C)c1C` [Example 2a7, 4-(2,3-Dimethyl-4-methoxy-benzylidene)-1-phenyl-pyrazolidine-3,5-dione], the figure is 190 nM; as for `CCOc1ccc(C=C2C(=O)NN(c3ccccc3)C2=O)cc1C` [Example 2a12, 4-(4-Ethoxy-3-methyl-benzylidene)-1-phenyl-pyrazolidine-3,5-dione], 470 nM; as for `CCCOc1ccc(C=C2C(=O)NN(c3ccccc3)C2=O)c2c1CCCC2` [Example 2a25, 1-Phenyl-4-(4-propoxy-5,6,7,8-tetrahydro-naphthalen-1-ylmethylene)-pyrazolidine-3,5-dione], 30 nM.

On to `CCCOc1ccc(C=C2C(=O)NN(c3ccccc3)C2=O)c2cnccc12` [Example 2a30, 1-Phenyl-4-[1-(5-propoxy-isoquinolin-8-yl)-methylidene]-pyrazolidine-3,5-dione], for which the IC50 was found to be 10 nM. In the case of `CCCOc1ccc(C=C2C(=O)NN(c3ccccc3)C2=O)c(OCCC)n1` [Example 2a35, 4-[1-(2,6-Dipropoxy-pyridin-3-yl)-methylidene]-1-phenyl-pyrazolidine-3,5-dione] it was 370 nM; in that of `CCCOc1ccc(C=C2C(=O)NN(c3ccccc3)C2=O)c(OCCOC)c1C` [Example 2a39, 4-[1-[2-(2-Methoxy-ethoxy)-3-methyl-4-propoxy-phenyl]-methylidene]-1-phenyl-pyrazolidine-3,5-dione], 15 nM; in that of `CCCOc1ccc(C=C2C(=O)NN(c3ccccc3)C2=O)c(OCCCCO)c1C` [Example 2a43, 4-[1-[2-(4-Hydroxy-butoxy)-3-methyl-4-propoxy-phenyl]-methylidene]-1-phenyl-pyrazolidine-3,5-dione], 5 nM. In the case of `CCCOc1ccc(C=C2C(=O)NN(c3ccccc3)C2=O)c(OCCCCC(=O)O)c1C` [Example 2a52, 4-[1-[2-(4-Carboxy-butyloxy)-3-methyl-4-propoxy-phenyl]-methylidene]-1-phenyl-pyrazolidine-3,5-dione] it was 1.6 nM. `CCCOc1ccc(C=C2C(=O)NN(c3ccccc3)C2=O)c(OC[C@H](O)CC(=O)O)c1C` [Example 2a63, 4-[1-[2-((2R)-3-Carboxy-2-hydroxy-propoxy)-3-methyl-4-propoxy-phenyl]-methylidene]-1-phenyl-pyrazolidine-3,5-dione]: the IC50 is 1 nM.

For `CCCOc1ccc(C=C2C(=O)NN(c3ccccc3)C2=O)c(OC[C@@H](O)CC(=O)O)c1C` [Example 2a64, 4-[1-[2-((2S)-3-Carboxy-2-hydroxy-propoxy)-3-methyl-4-propoxy-phenyl]-methylidene]-1-phenyl-pyrazolidine-3,5-dione], the half-inhibitory concentration (IC50) was determined as 0.8 nM.

For the compound `CCCOc1ccc(C=C2C(=O)NN(c3ccccc3)C2=O)c(OC[C@H](O)[C@@H](O)C(=O)O)c1C` [Example 2a71, 4-[1-[2-((2S,3R)-3-carboxy-2,3-dihydroxy-propoxy)-3-methyl-4-propoxy-phenyl]-methylidene]-1-phenyl-pyrazolidine-3,5-dione], the IC50 is 3 nM.

`CCCOc1ccc(C=C2C(=O)NN(c3ccccn3)C2=O)c(C)c1C` [Example 4a2, 4-(2,3-Dimethyl-4-propoxy-benzylidene)-1-pyridin-2-yl-pyrazolidine-3,5-dione]: the IC50 was 140 nM. As for `CCCOc1ccc(C=C2C(=O)NN(c3ccc(F)cc3)C2=O)c(C)c1C` [Example 8a, 4-(2,3-Dimethyl-4-propoxy-benzylidene)-1-(4-fluoro-phenyl)-pyrazolidine-3,5-dione], the figure is 83 nM; as for `CCCOc1ccc(C=C2C(=O)NNC2=O)c2c1CCCC2` [Example 12a3, 4-(4-Propoxy-5,6,7,8-tetrahydro-naphthalen-1-ylmethylene)-pyrazolidine-3,5-dione], 55 nM; as for `CCCOc1ccc(C=C2C(=O)NNC2=O)c(OCCC)c1C` [Example 12a9, 4-(3-Methyl-2,4-dipropoxy-benzylidene)-pyrazolidine-3,5-dione], 40 nM. On to `CCCOc1ccc(C=C2C(=O)NN(C(C)=O)C2=O)c(C)c1C` [Example 15, 1-Acetyl-4-[1-(2,3-dimethyl-4-propoxy-phenyl)-methylidene]-pyrazolidine-3,5-dione], for which the IC50 was 9600 nM.
